Data from PubChem BioAssay (NCI).
Where “and” joins values, the source holds several entries; their conditions need not be identical. Identical values can stand only once.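 Each compound was tested at five concentrations against cells in 96-well plates for 48 hours. GI50 = concentration required for 50% inhibition of growth. TGI denotes the concentration required for complete inhibition of growth.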

Experiments:
Assay in all cases: inhibition of tumour cell growth, NCI panel, 48 h
SF-295 CNS = system: SF-295 CNS
OVCAR-5 ovarian = system: OVCAR-5 ovarian
BT-549 breast = system: BT-549 breast
A549 NSCLC = system: A549 NSCLC
CCRF-CEM leukemia = system: CCRF-CEM leukemia
NCI/ADR-RES ovarian = system: NCI/ADR-RES ovarian
SK-MEL-28 melanoma = system: SK-MEL-28 melanoma
UACC-62 melanoma = system: UACC-62 melanoma
HCT-116 colon = system: HCT-116 colon
K-562 leukemia = system: K-562 leukemia

SMILES	GI50 (SF-295 CNS)	TGI (SF-295 CNS)	GI50 (OVCAR-5 ovarian)	TGI (OVCAR-5 ovarian)	GI50 (BT-549 breast)	TGI (BT-549 breast)	GI50 (A549 NSCLC)	TGI (A549 NSCLC)	GI50 (CCRF-CEM leukemia)	TGI (CCRF-CEM leukemia)	GI50 (NCI/ADR-RES ovarian)	TGI (NCI/ADR-RES ovarian)	GI50 (SK-MEL-28 melanoma)	TGI (SK-MEL-28 melanoma)	GI50 (UACC-62 melanoma)	TGI (UACC-62 melanoma)	GI50 (HCT-116 colon)	TGI (HCT-116 colon)	GI50 (K-562 leukemia)	TGI (K-562 leukemia)
CCN(CC)c1cc(/C=C/c2ccc(OC)c(OC)c2)nc2cc(F)c(F)cc12	2.03 µM	4.63 µM	20.3 µM	> 100 µM	2.03 µM	5.28 µM	30 µM	> 100 µM	3.18 µM	11 µM	7.52 µM	> 100 µM	14.9 µM	> 100 µM	7.04 µM	> 100 µM	5.35 µM	17.5 µM	–	–
Cc1cccc(Oc2nccc(-c3c(-c4ccc(F)cc4)ncn3C3CCNCC3)n2)c1C	5.56 µM	14 µM	8.62 µM	> 25 µM	10.9 µM	> 19.6 µM	> 14.3 µM	> 25 µM	–	–	11.5 µM	> 25 µM	4.65 µM	9.48 µM	4.94 µM	9.96 µM	7.26 µM	> 17.8 µM	5.68 µM	16 µM
CC1/C=C/C=C/C=C/C=C/C=C/C=C/C=C/C(O[C@@H]2O[C@H](C)[C@H](O)[C@@H](O)[C@@H]2N)CC(O)C(C(=O)O)C(O)CC(=O)CC(O)CC(O)CC(O)CC(=O)CCCC(=O)CC(=O)OC1C(C)CC(C)C(O)CC(=O)c1ccc(N)cc1 (stereo partly drawn)	0.0692 µM and 0.232 µM	0.155 µM and 0.605 µM	0.0792 µM and 0.357 µM	0.216 µM and 1.3 µM	0.213 µM	0.444 µM	0.0561 µM and 0.169 µM	0.101 µM and 0.305 µM	0.0627 µM and 0.206 µM	0.141 µM and 0.489 µM	0.0626 µM and 0.209 µM	0.125 µM and 0.474 µM	0.0622 µM and 0.189 µM	0.108 µM and 0.356 µM	0.0576 µM and 0.203 µM	0.109 µM and 0.458 µM	0.0581 µM and 0.219 µM	0.103 µM and 0.485 µM	0.0716 µM	0.175 µM
O=C(O)C1C(C(=O)Nc2ccc3c(c2)Cc2ccccc2-3)C2(Cl)C(Cl)=C(Cl)C1(Cl)C2(Cl)Cl (stereo not drawn)	–	> 100 µM	–	38.6 µM	–	39.2 µM	–	> 100 µM	–	38 µM	–	> 100 µM	–	46.3 µM	–	31.1 µM	–	38.1 µM	–	13.5 µM
CCSCC(N)C(=O)O (stereo not drawn)	–	> 100 µM	–	> 100 µM	–	> 100 µM	–	> 100 µM	–	> 100 µM	–	> 100 µM	–	> 100 µM	–	> 100 µM	–	> 100 µM	–	–
CC(C)[C@@]12C[C@@H](OC(=O)[C@H]3CO3)[C@@](C)(O1)[C@@H]1CC[C@@H](C)[C@H]1[C@@H]2OC(=O)/C=C/c1ccccc1	15.3 µM	35.5 µM	20.5 µM	68 µM	1.34 µM	13.7 µM	16.7 µM	54.6 µM	18 µM	> 84.7 µM	0.799 µM	35.9 µM	18.7 µM	57.2 µM	13.6 µM	35.7 µM	9.46 µM	> 100 µM	18.5 µM	> 100 µM
CN1CCCNc2c(c(=O)c2=O)NCCCN(C)CCCNc2c(c(=O)c2=O)NCCCN(C)CCCNc2c(c(=O)c2=O)NCCCN(C)CCCNc2c(c(=O)c2=O)NCCCN(C)CCCNc2c(c(=O)c2=O)NCCCN(C)CCCNc2c(c(=O)c2=O)NCCCN(C)CCCNc2c(c(=O)c2=O)NCCC1	5.52 µM	12.9 µM	9.32 µM	20.6 µM	5.69 µM	19.8 µM	6.05 µM	> 50 µM	2.24 µM	49.3 µM	5.96 µM	26.7 µM	3.7 µM	16.2 µM	2.39 µM	16.8 µM	5.81 µM	17.4 µM	–	–
